Reference: ChEMBL document CHEMBL1697781, “Assessment of the health effects of chemicals in humans: II. Construction of an adverse effects database for QSAR modeling” (Curr Drug Discov Technol, 2004)

Assays:
Settings in all cases: human; call rule not given here
[1] = test system: Hepatotoxicity; test: FDA HLAED, serum glutamic pyruvic transaminase (SGPT) increase
[2] = test system: Hepatotoxicity; test: FDA HLAED, lactate dehydrogenase (LDH) increase
[3] = test system: Hepatotoxicity; test: FDA HLAED, serum glutamic oxaloacetic transaminase (SGOT) increase
[4] = test system: Hepatotoxicity; test: FDA HLAED, alkaline phosphatase increase
[5] = test system: Hepatotoxicity; test: FDA HLAED, liver enzyme composite activity
[6] = test system: Hepatotoxicity; test: FDA HLAED, gamma-glutamyl transferase (GGT) increase

Compound	SGPT Increase - Activity Score [1]	SGPT Increase - Index Value [1]	SGPT Increase - Number of Reports [1]	LDH Increase - Activity Score [2]	LDH Increase - Index Value [2]	LDH Increase - Number of Reports [2]	SGOT Increase - Activity Score [3]	SGOT Increase - Index Value [3]	SGOT Increase - Number of Reports [3]	Alkaline Phosphatase Increase - Activity Score [4]	Alkaline Phosphatase Increase - Index Value [4]	Alkaline Phosphatase Increase - Number of Reports [4]	Composite Activity - Active [5]	Composite Activity - Marginal [5]	Composite Activity - Score [5]	GGT Increase - Activity Score [6]	GGT Increase - Index Value [6]	GGT Increase - Number of Reports [6]	also measured
Fc1ccccc1C1=NCC(=S)N(CC(F)(F)F)c2ccc(Cl)cc21 [QUAZEPAM]	Inactive	0	< 4	Inactive	0	< 4	Inactive	0	< 4	Inactive	0	< 4	0	0	Inactive	Inactive	0	< 4	
CNC(=C[N+](=O)[O-])NCCSCc1ccc(CN(C)C)o1 [RANITIDINE]	Inactive	1	>= 4	Inactive	0.3	>= 4	Inactive	1.2	>= 4	Inactive	1.1	>= 4	0	0	Inactive	Inactive	0	< 4	
CO[C@H]1/C=C/O[C@@]2(C)Oc3c(C)c(O)c4c(c3C2=O)C2=NC3(CCN(CC(C)C)CC3)NC2=C(NC(=O)/C(C)=C\C=C\[C@H](C)[C@H](O)[C@@H](C)[C@@H](O)[C@@H](C)[C@H](OC(C)=O)[C@@H]1C)C4=O [RIFABUTIN]	Active	31.8	>= 4	Inactive	5.3	< 4	Active	31.8	>= 4	Active	15.9	>= 4				Active	18.5	>= 4	Composite Activity - Active ([5]; Liver): 4; Composite Activity - Marginal ([5]; Liver): 0; Composite Activity - Score ([5]; Liver): Active
Nc1nc2ccc(OC(F)(F)F)cc2s1 [RILUZOLE]	Inactive	22.6	< 4	Inactive	22.6	< 4	Inactive	22.6	< 4	Active	45.2	< 4	1	0	Inactive	Inactive	22.6	< 4	
CC(N)C12CC3CC(CC(C3)C1)C2 (stereo not drawn) [RIMANTADINE]	Inactive	1.7	< 4	Inactive	0	< 4	Inactive	3.3	< 4	Inactive	1.7	< 4	0	0	Inactive	Inactive	0	< 4	
CCC(=O)[C@@]1(C)[C@H](C)C[C@H]2[C@@H]3CCC4=CC(=O)C=C[C@]4(C)[C@H]3[C@@H](O)C[C@@]21C [RIMEXOLONE]	Inactive	0	< 4	Inactive	0	< 4	Inactive	0	< 4	Inactive	0	< 4	0	0	Inactive	Inactive	0	< 4	
